Source: US8816119B2, “Arylamide derivatives having antiandrogenic properties” (Medeia Therapeutics Ltd, priority 2010, dated 2014)
Substitutions are numbered along the chain they refer to.

Key:
Type in all cases: cell-based
W741L AR = molecular target: T1, W741L AR (Homo sapiens, UniProt P10275, W742L); assay: Agonism in W741L mutant AR, AR transactivation assay in COS-1 cells, test compounds alone; settings: 10 microM, compound alone
T1 construct: expressed in transfected cells; host or cells: COS-1
T1 sequence (P10275 1-920 W742L): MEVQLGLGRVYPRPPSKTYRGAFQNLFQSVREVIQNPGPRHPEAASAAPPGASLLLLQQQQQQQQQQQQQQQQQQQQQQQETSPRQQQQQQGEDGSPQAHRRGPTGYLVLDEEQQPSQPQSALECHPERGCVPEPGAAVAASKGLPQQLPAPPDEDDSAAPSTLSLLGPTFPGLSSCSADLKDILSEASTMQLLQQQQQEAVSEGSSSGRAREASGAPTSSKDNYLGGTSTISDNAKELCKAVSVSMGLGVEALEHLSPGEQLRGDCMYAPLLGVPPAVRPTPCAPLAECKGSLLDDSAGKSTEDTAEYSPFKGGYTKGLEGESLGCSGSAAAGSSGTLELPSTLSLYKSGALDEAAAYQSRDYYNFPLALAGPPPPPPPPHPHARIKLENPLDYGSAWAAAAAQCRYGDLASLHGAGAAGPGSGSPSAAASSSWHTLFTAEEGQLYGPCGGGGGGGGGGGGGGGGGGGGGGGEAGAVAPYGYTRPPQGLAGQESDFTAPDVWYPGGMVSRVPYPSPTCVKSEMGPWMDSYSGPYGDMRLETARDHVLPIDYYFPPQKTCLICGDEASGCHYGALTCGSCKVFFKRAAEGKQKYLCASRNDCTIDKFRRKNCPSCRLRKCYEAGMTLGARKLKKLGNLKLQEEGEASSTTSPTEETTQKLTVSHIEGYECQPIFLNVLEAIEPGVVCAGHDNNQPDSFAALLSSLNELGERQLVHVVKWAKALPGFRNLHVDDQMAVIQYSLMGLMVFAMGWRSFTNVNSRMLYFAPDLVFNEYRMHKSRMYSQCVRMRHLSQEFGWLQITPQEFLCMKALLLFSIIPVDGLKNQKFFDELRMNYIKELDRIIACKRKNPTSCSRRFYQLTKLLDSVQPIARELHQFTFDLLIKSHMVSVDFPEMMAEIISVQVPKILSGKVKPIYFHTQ
Protocol: COS-1 (American Type Culture Collection) were cultured in DMEM supplemented with 10% FBS, penicillin (6.25 U/ml) and streptomycin (6.25 μg/ml) and seeded onto 48-well plates (50 000 cells/well) one day before transfection. Transfection media containing 2.5% charcoal-stripped FBS in DMEM was changed on cells 4 h prior to transfection. Cells were transfected with 50 ng of reporter gene plasmid (pPB-286/+32-LUC; PB, probasin promoter), 5 ng of AR expression plasmid (pSG5-hAR), and 5 ng of pCMVβ (an internal, beta-galactosidase control for transfection efficiency and cell growth) using TranslT-LT1 reagent (Mirus Bio Corporation) according to the manufacturer's instructions. […] After 18 h, reporter gene activities (LUC and beta-galactosidase) were determined according to standard methods. The data are expressed as relative LUC activity (luciferase light units divided by beta-galactosidase A420nm to control for transfection efficiency) of a given compound in relation to the activity of a reference test item (=100%).
Agonism in W741L AR of compounds of the present invention was measured in AR transactivation assay in COS-1 cells as described above except that AR expression vector harboring the W741L mutation was used instead of the WT AR. The transfected cells were exposed to test compounds alone.

WT AR = molecular target: T2, WT AR (Homo sapiens, UniProt P10275); assay: Antagonism in WT AR, AR transactivation reporter gene assay in COS-1 cells, competitive setting with 50 nM testosterone; settings: 18 h
T2 construct: expressed in transfected cells; host or cells: COS-1
T2 sequence (P10275 1-920): T1 sequence (P10275 1-920 W742L) with L742W
Protocol: After 18 h, reporter gene activities (LUC and beta-galactosidase) were determined according to standard methods. The data are expressed as relative LUC activity (luciferase light units divided by beta-galactosidase A420nm to control for transfection efficiency) of a given compound in relation to the activity of a reference test item (=100%).
Antagonism in WT AR of compounds of the present invention was measured in AR transctivation assay in COS-1 cells in competitive setting using testosterone as a reference agonist as described above. […] Relative LUC activity representing AR-dependent transcription obtained by exposure to testosterone alone was set to 100%.

T877A AR = molecular target: T3, T877A AR (Homo sapiens, UniProt P10275, T878A); assay: Agonism in T877A mutant AR, AR transactivation assay in COS-1 cells, test compounds alone; settings: 10 microM, compound alone
T3 construct: expressed in transfected cells; host or cells: COS-1
T3 sequence (P10275 1-920 T878A): T1 sequence (P10275 1-920 W742L) with L742W, T878A
Source text: The transfected cells were exposed to test compounds alone. Testosterone was used as reference agonist, and its' relative LUC activity representing AR-dependent transcription was set to 100%.

SMILES	Relative LUC activity (%) in W741L AR in relation to BIC (100%) (W741L AR)	Relative LUC activity (%) indicating residual androgen activity in relation to testosterone (100%) (WT AR; 1 microM compound)	Relative LUC activity (%) indicating residual androgen activity in relation to testosterone (100%) (WT AR; 10 microM compound)	Relative LUC activity (%) in T877A AR in relation to testosterone (100%) (T877A AR)
N#Cc1ccc(NC(=O)C(O)(CS(=O)(=O)Cc2ccc(Cl)cc2)c2ccc(Cl)cc2)cc1Cl (centres unmarked) [Example 27, N-[3-chloro-4-cyanophenyl]-3-{[(4-chlorophenyl)methane]sulfonyl}-2-hydroxy-2-[4-(chloro)phenyl]propanamide]	6%	14%	1%	1%
N#Cc1ccc(S(=O)(=O)CC(O)(C(=O)Nc2ccc([N+](=O)[O-])c(Cl)c2)c2ccc(C(F)(F)F)cc2)cc1F (centres unmarked) [Example 19, N-(3-chloro-4-nitrophenyl)-3-[(4-cyano,3-fluorobenzene)sulfonyl]-2-hydroxy-2-[4-(trifluoromethyl)phenyl]propanamide]	9%	11%	1%	2%
CCS(=O)(=O)CC(O)(C(=O)Nc1ccc(C#N)c(Cl)c1)c1ccc(OC)c(F)c1 (centres unmarked) [Example 25, N-(3-chloro-4-cyanophenyl)-2-((3-fluoro-4-methoxy)phenyl)-3-(ethanesulfonyl)-2-hydroxypropanamide]	9%	22%	6%	9%
N#Cc1ccc(NC(=O)C(O)(CS(=O)(=O)c2ccc(Cl)cc2)c2ccc(Cl)cc2)cc1Cl (centres unmarked) [Example 18, N-(3-chloro-4-cyanophenyl)-3-[(4-chlorobenzene)sulfonyl]-2-(4-chlorophenyl)-2-hydroxypropanamide]	27%	7%	1%	6%
COc1ccc(C(O)(CS(=O)(=O)Cc2ccc(F)cc2)C(=O)Nc2ccc(C#N)c(Cl)c2)cc1F (centres unmarked) [Example 32, N-(3-chloro-4-cyanophenyl)-2-(3-fluoro-4-methoxyphenyl)-3-{[(4-fluorophenyl)methane]sulfonyl}-2-hydroxypropanamide]	3%	24%	2%	2%
N#Cc1ccc(NC(=O)C(O)(CS(=O)(=O)Cc2ccc(F)cc2)c2cccc(C(F)(F)F)c2)cc1Cl (centres unmarked) [Example 40, N-(3-chloro-4-cyanophenyl)-3-{[(4-fluorophenyl)methane]sulfonyl}-2-hydroxy-2-[3-(trifluoromethyl)phenyl]propanamide]	2%	22%	2%	1%
N#Cc1ccc(NC(=O)C(O)(CS(=O)(=O)c2ccc(F)cc2)c2ccc(C(F)(F)F)cc2)cc1Cl (centres unmarked) [Example 4, N-(3-chloro-4-cyanophenyl)-3-[(4-fluorobenzene)sulfonyl]-2-hydroxy-2-[4-(trifluoromethyl)phenyl]propanamide]	8%	21%	1%	1%
N#Cc1ccc(NC(=O)C(O)(CS(=O)(=O)c2ccc(F)c(F)c2)c2ccc(C(F)(F)F)cc2)cc1Cl (centres unmarked) [Example 10, N-(3-chloro-4-cyanophenyl)-3-[(3,4-difluorobenzene)sulfonyl]-2-hydroxy-2-[4-(trifluoromethyl)phenyl]propanamide]	3%	23%	6%	1%
